Laboratory results taken from US10342758B2, “Cationic lipid” (Kyowa Hakko Kirin Co., Ltd., priority 2012, dated 2019).

What was measured:
[1] = Average particle diameter of preparation (Zetasizer Nano ZS); type: physicochemical; conditions: preparation with apo-b siRNA; compound/PEG-DMPE Na/DSPC/cholesterol; Example 49 / Comparative Example 1
[2] = as above; type: physicochemical; conditions: preparation with f7 siRNA
Method: The average particle diameter of each preparation (composition) was measured using a particle diameter measurement device (Zetasizer Nano ZS, manufactured by Malvern, hereafter the same).
The average particle diameter of each preparation (composition) was measured using a particle diameter measurement device.
Each sample was weighed and suspended in an aqueous solution containing hydrochloric acid and ethanol so that the ratio of Compound A-1/PEG-DMPE Na (manufactured by NOF Corporation) was 57.3/5.52 mmol/L, and then, the resulting mixture was repeatedly subjected to stirring using a vortex stirring mixer and heating, whereby a uniform suspension was obtained. This suspension was passed through a 0.2-μm polycarbonate membrane filter and thereafter passed through a 0.05-μm polycarbonate membrane filter at room temperature, whereby a dispersion liquid of particles (liposome) of Compound A-1/PEG-DMPE Na was obtained. The average particle diameter of the obtained liposome was measured using a particle diameter measuring apparatus to confirm that the average particle diameter was within the range from 30 nm to 100 nm. In the obtained dispersion liquid of liposome, the f7 siRNA solution was mixed at a ratio of the dispersion liquid of liposome to the fl siRNA solution of 3:1, and then, distilled water that was three times the amount was added thereto and mixed therewith, whereby a dispersion liquid of Compound A-1/PEG-DMPE Na/f7 siRNA complex was prepared.
The average particle diameter of the preparation (composition) was measured using a particle diameter measurement device.

apo-b gene mRNA = assay: Expression ratio of apo-b mRNA after introduction of preparations into HepG2 cells; type: cell-based, human; conditions: nucleic acid 3 to 100 nM, 24 hours, composition with apo-b siRNA (FIG. 1)
Excerpt: Each of the preparation: obtained in Example 49 (the compositions containing any of Compounds A-1, and A-3 to A-5, and the nucleic acid) and the preparations obtained in Comparative Example 1 (the compositions containing any of DLin-KC2-DMA and Compounds XI-1 to XI-3, and the nucleic acid) was introduced into cells of human liver cancer-derived cell line HepG2 (HB-8065) by the following method.
Each preparation diluted with Opti-MEM (GIBCO Co., Ltd., 31985) so that the final concentration of the nucleic acid was 3 to 100 nM was dispensed in a 96-well culture plate at 20 μL/well. […]
By using the obtained cDNA as a template and also using a universal probe library (Roche Applied Science, Inc., 04683633001) as the probe and ABI7900HT Fast (manufactured by ABI, Inc.), a PCR reaction was performed according to the method described in the protocol attached thereto, so that the apo-b gene and D-glyceraldehyde-3-phosphate dehydrogenase (hereinafter, represented by “gapdh”) gene, which is a constitutively expressed gene, were subjected to the PCR reaction. Then, the amount of the amplified mRNA was measured for each gene, and a quasi-quantitative value of the apo-b mRNA was calculated using the amount of the amplified gapdh mRNA as the internal control. […]

[3] = compound/PEG-DMPE Na/DSPC/cholesterol, Examples 50, 51 / Comparative Example 2
[4] = liposome/siRNA complex encapsulated by lipid membrane, Examples 52, 53 / Comparative Example 3

| Particle diameter of Preparation obtained [2, 3] | Particle diameter of Preparation obtained [2, 4] | SMILES | other results |
| --- | --- | --- | --- |
| – | – | CCCCCC/C=C\CCCCCCCCN(CCCCCCCC/C=C\CCCCCC)C(=O)OCCCN(C)C [Compound A-3, 3-(Dimethylamino)propyl di(Z)-hexadec-9-enyl) carbamate] | Particle diameter of Preparation obtained [1]: 150.0 nm |
| 137.3 nm | 98.8 nm | CCCCC/C=C\C/C=C\CCCCCCCCN(CCO)CCCCCCCC/C=C\C/C=C\CCCCC [Compound C-4, 2-(Di((9Z,12Z)-octadeca-9,12-dienyl)amino)ethanol] | – |
| 134.9 nm | 96.4 nm | CCCCC/C=C\C/C=C\CCCCCCCCN(CCCCO)CCCCCCCC/C=C\C/C=C\CCCCC [Compound C-5, 4-(Di((9Z,12Z)-octadeca-9,12-dienyl)amino)butan-1-ol] | – |
| – | – | CCCCC/C=C\C/C=C\CCCCCCCCN(CCCCCCCC/C=C\C/C=C\CCCCC)C(=O)CCCCN(C)C [Compound XI-2, 5-(Dimethylamino)-N,N-di((9Z,12Z)-octadeca-9,12-dienyl)pentanamide] | expression of the apo-b gene mRNA (apo-b gene mRNA): did not suppress the expression of the apo-b gene mRNA |
| 114.1 nm | – | CCCCC/C=C\C/C=C\CCCCCCCCOCCN(CCOCCCCCCCC/C=C\C/C=C\CCCCC)C(=O)OCCCN(C)C [Compound XI-5, 3-(Dimethylamino)propyl bis(2-((9Z,12Z)-octadeca-9,12-dienyloxy)ethyl)carbamate, reference compound] | – |
| 142.8 nm | – | CCCCC/C=C\C/C=C\CCCCCCCCN(CCCCCCCC/C=C\C/C=C\CCCCC)CC(O)CO (stereo not shown) [Compound XI-7, 3-(Di((9Z,12Z)-octadeca-9,12-dienyl)amino)propane-1,2-diol, reference compound] | – |
| 128.0 nm | – | CCCCC/C=C\C/C=C\CCCCCCCCO[C@@H]1CN(CCCO)C[C@H]1OCCCCCCCC/C=C\C/C=C\CCCCC [Compound XI-8, 3-((3R,4R)-3,4-Bis((9Z,12Z)-octadeca-9,12-dienyloxy)pyrrolidin-1-yl)propan-1-ol, reference compound] | – |
| – | 116.2 nm | CCCCC/C=C\C/C=C\CCCCCCCCOCC(CN(C)C(=O)OCCCN(C)C)OCCCCCCCC/C=C\C/C=C\CCCCC (stereo not shown) [Compound XI-9, 3-(Dimethylamino)propyl 2,3-bis((9Z,12Z)-octadeca-9,12-dienyloxy)propyl(methyl)carbamate, reference compound] | – |
